Target: T1, human Cystic Fibrosis Transmembrane Conductance Regulator (CFTR) harboring the ΔF508 mutation (Homo sapiens, UniProt P13569, DEL508-508)
T1 construct: expressed in transfected cells; host or cells: H441 carcinoma line (G418 selection)
Experiment: H441 cell Emax and EC50: HRP-tagged ΔF508-CFTR cell surface luminescence assay
Assay type: cell-based
Conditions: H441 cells expressing ΔF508-CFTR-HRP, 27° C., two nights; for EC50: 15-point dose-response, top 24.5 μM; for Emax: NCI-H441, % of maximum VX809 signal
Description: Two cell lines were used, the H441 carcinoma line and the CFHBE41o-(41o-) human bronchial epithelial line. Both cell lines expressed human Cystic Fibrosis Transmembrane Conductance Regulator (CFTR) harboring the ΔF508 mutation and with an in-frame fusion in CFTR extracellular loop 4 of Horse Radish Peroxidase (HRP) under control of the CMV promoter. In the presence of the HRP tag, ΔF508-CFTR transported to the cell surface was detectable upon addition of an HRP substrate (Luminata Forte). Both cell types were cultivated at 37° C. with CO2.
For both cell types, the medium was changed every other day unless the culture was at low % confluence. Cells were used for the assays at ˜75% confluence.
To a polypropylene (PP) 384-well plate, 15 μls DMSO was added to all wells in columns 1-22 and 24 (low Control). 15 μls of 260 μM VX809 (Lumacaftor), Selleckchem S1565, was added to column 23 wells (high Control). 15 μls of 10 mM test compound or VX809 (control) were added to wells of row A. Serial dilutions of Row A compound were performed 2×15 μls in rows A through O (15-point).
A PP, 384-well plate containing the appropriate cell culture medium was prepared for each assay plate with 100 μls per well. For the doxycycline-induced 41o-cells, doxycycline for both the assay plate and the medium dilution plate was added at 0.0005 mg/ml to the medium.
Both cell lines were plated for the assay at 30 uls per 384-well at 3.4×10^e5 cells per ml (˜10K cells/well). H441 cells were plated on opaque, white, Corning plate 3704. 41o-cells were plated on collagen-coated opaque, white, Corning plate 356665. For 41o-cells, doxycycline was added to the medium.
Using FX (Beckman) protocol, 10 uls diluted compound or medium was added per well to the Assay Plate as: 2 μls DMSO Dilution plate well is diluted in 100 uls of the Medium Dilution Plate well, mixed, and 10 uls is transferred to the Assay Plate.
The final assay dilution series is 24.5, 12.3, 6.1, 3.1, 1.5, 0.8, 0.4, 0.2, 0.1, 0.05, 0.02, 0.01, 0.006, 0.003, 0.001 and 0 μM. The 41o-assay plates were incubated at 37° C. w/CO2, the H441 assay plates were incubated at 27° C. w/CO2, each overnight for two nights.
After being brought to room temperature, the assay plate liquid was removed. 30 μls of Luminata Forte (Millipore ELLUF0100) was added per well and incubated at room temperature for 10 min. The plates were then read on a Topcount, protocol LumiMatti (CPS, luminescence). The data was analyzed for % of maximum, maximum VX809 signal, and EC50 using Pearl and SPEED tools.

T1 sequence (P13569 with tags, fused parts or gaps DEL508-508): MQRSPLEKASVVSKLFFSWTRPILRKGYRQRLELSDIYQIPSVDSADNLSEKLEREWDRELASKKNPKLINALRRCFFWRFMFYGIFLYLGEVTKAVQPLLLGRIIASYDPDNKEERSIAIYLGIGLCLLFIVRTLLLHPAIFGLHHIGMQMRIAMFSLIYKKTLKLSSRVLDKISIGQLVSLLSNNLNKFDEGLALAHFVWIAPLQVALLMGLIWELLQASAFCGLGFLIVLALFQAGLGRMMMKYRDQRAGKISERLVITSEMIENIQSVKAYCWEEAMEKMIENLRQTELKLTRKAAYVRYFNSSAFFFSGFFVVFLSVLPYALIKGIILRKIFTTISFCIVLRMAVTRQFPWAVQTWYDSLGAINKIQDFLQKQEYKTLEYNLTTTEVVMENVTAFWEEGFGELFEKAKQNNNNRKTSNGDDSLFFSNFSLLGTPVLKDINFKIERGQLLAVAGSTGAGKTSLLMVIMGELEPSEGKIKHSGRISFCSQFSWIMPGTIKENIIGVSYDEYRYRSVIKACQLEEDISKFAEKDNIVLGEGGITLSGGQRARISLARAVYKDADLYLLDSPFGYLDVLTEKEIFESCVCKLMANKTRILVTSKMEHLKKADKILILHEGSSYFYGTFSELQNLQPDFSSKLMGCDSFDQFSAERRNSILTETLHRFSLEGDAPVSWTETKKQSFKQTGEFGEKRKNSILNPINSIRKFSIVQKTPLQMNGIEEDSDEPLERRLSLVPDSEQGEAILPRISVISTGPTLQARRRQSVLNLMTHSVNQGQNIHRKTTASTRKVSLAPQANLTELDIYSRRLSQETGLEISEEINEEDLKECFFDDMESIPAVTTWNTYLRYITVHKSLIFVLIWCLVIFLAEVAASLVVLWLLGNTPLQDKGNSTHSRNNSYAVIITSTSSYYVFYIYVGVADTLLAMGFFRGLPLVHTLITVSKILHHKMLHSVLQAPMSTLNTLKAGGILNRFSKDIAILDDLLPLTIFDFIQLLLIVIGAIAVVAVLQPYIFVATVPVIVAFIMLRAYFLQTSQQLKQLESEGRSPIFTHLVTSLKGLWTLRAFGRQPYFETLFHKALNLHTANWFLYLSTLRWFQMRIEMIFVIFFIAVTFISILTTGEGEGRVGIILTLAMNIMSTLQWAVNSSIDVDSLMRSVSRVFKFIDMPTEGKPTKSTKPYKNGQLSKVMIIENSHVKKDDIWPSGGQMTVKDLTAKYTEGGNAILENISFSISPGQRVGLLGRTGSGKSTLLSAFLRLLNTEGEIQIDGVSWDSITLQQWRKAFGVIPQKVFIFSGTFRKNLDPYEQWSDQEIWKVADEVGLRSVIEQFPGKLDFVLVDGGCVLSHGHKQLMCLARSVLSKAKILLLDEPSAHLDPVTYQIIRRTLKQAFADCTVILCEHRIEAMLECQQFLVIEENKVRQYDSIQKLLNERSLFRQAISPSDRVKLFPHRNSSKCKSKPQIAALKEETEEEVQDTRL

Row | Compound | EC50 | Emax
1 | O=C(O)[C@@H](N1CN(Cc2ccc(OC(F)(F)F)cc2)c2c(ccc3ccccc23)C1=O)C12CC3CC(CC(O)(C3)C1)C2 [compound 119] | 614 nM | 71%
2 | O=C(O)[C@@H](n1c(=O)c2ccc3ccccc3c2n(Cc2ccc(C(F)(F)F)cc2)c1=O)C12CC3CC(CC(C3)C1)C2 [compound 137, (2S)-2-(1-adamantyl)-2-[2,4-dioxo-1-[[4-(trifluoromethyl)phenyl]methyl]benzo[h]quinazolin-3-yl]acetic acid] | 1600 nM | 5.3%
3 | O=C(N[C@H](C(=O)O)C12CC3CC(CC(C3)C1)C2)c1ccc2ccccc2c1OCc1nc2ccccc2s1 [compound 65] | 1320 nM | 198%
4 | CC12CC3(C)CC(C)(C1)CC(C(NC(=O)c1ccc4ccccc4c1OCC1CCCCC1)C(=O)O)(C2)C3 (stereo not shown) [compound 75] | 599 nM | 271%
5 | O=C(N[C@H](C(=O)O)C12CC3CC(CC(O)(C3)C1)C2)c1ccc2cc(F)ccc2c1OCc1ccc(SC(F)(F)F)cc1 [compound 4] | 991 nM | 55.7%
6 | O=C(N[C@H](C(=O)O)C12CC3(Cl)CC(Cl)(CC(Cl)(C3)C1)C2)c1ccc2ccccc2c1NCc1ccc(SC(F)(F)F)cc1 [compound 127, (2S)-2-(3,5,7-trichloro-1-adamantyl)-2-[[1-[[4-(trifluoromethylsulfanyl)phenyl]methylamino]naphthalene-2-carbonyl]amino]acetic acid] | 625 nM | 75.5%
7 | O=C(N[C@H](C(=O)O)C12CC3CC(CC(O)(C3)C1)C2)c1ccc2cc(F)ccc2c1OCc1ccc(S(F)(F)(F)(F)F)cc1 [compound 50] | 2170 nM | 76.4%
8 | CC(C)C#CCOc1c(C(=O)N[C@H](C(=O)O)C23CC4CC(CC(C4)C2)C3)ccc2cc(F)ccc12 [compound 72] | 11200 nM | 92.7%
9 | O=C(N[C@H](C(=O)O)C12CC3CC(CC(C3)C1)C2)c1ccc2cccnc2c1OCc1ccc(OC(F)(F)F)cc1 [compound 84] | 660 nM | 149%
10 | O=C(N[C@H](C(=O)O)C12CC3CC(CC(Br)(C3)C1)C2)c1ccc2cccnc2c1OCc1ccc(C(F)(F)F)cc1 [compound 67] | 879 nM | 134%
11 | Cc1ccc2ccc(C(=O)N[C@H](C(=O)O)C34CC5CC(CC(C5)C3)C4)c(OCc3ccc(OC(F)(F)F)cc3)c2c1 [compound 34] | 489 nM | 264%
12 | O=C(N[C@H](C(=O)O)C12CC3CC(CC(C3)C1)C2)c1ccc2occc2c1OCC1CCCCC1 [compound 116, (2S)-2-(1-adamantyl)-2-[[4-(cyclohexylmethoxy)benzofuran-5-carbonyl]amino]acetic acid] | 1770 nM | 212%
13 | CN(Cc1ccc(C(F)(F)F)cc1)c1c(CC(=O)N[C@H](C(=O)O)C23CC4CC(CC(C4)C2)C3)ccc2ccccc12 [compound 134, (2S)-2-(1-adamantyl)-2-[[2-[1-[methyl-[[4-(trifluoromethyl)phenyl]methyl]amino]-2-naphthyl]acetyl]amino]acetic acid] | – | -17.5%
14 | O=C(N[C@H](C(=O)O)C12CC3CC(CC(O)(C3)C1)C2)c1ccc2sccc2c1OCc1ccc(C(F)(F)F)cc1 [compound 105, (2S)-2-(3-hydroxy-1-adamantyl)-2-[[4-[[4-(trifluoromethyl)phenyl]methoxy]benzothiophene-5-carbonyl]amino]acetic acid] | 3550 nM | 150%
15 | O=C(N[C@H](C(=O)O)C12CC3CC(CC(C3)C1)C2)c1ccc2cc(F)ccc2c1OCC1CCCCC1 [compound 45] | 939 nM | 142%
16 | O=C(N[C@H](C(=O)O)C12CC3CC(CC(C3)C1)C2)c1ccc2ccccc2c1OCC1CCCCC1 [compound 52] | 903 nM | 171%
17 | O=C(N[C@H](C(=O)O)C12CC3CC(CC(C3)C1)C2)c1ccc2sccc2c1OCC1CCCCC1 [compound 104, (2S)-2-(1-adamantyl)-2-[[4-(cyclohexylmethoxy)benzothiophene-5-carbonyl]amino]acetic acid] | 1230 nM | 228%
18 | O=C(N[C@H](C(=O)O)C12CC3CC(CC(C3)C1)C2)c1sc2ccccc2c1OCc1nc2ccccc2s1 [compound 95] | 939 nM | 156%
19 | O=C(N[C@H](C(=O)O)C12CC3CC(CC(C3)C1)C2)c1ccc2ccccc2c1OCc1ccc(OC(F)(F)F)cc1 [compound 8] | 1400 nM | 176%
20 | COc1cccc2c(OCc3ccc(C(F)(F)F)cc3)c(C(=O)N[C@H](C(=O)O)C34CC5CC(CC(C5)C3)C4)ccc12 [compound 12] | 709 nM | 154%
21 | O=C(N[C@H](C(=O)O)C12CC3CC(CC(O)(C3)C1)C2)c1ccc2cc(F)ccc2c1OCc1ccc(C(F)(F)F)cc1 [compound 33] | 755 nM | 100%

Now from value to compound:

Row | EC50 | Emax | Compound
22 | 265 nM | 141% | O=C(N[C@H](C(=O)O)C12CC3CC(CC(C3)C1)C2)c1ccc2occc2c1OCc1ccc(Cl)c(Cl)c1 [compound 120, (2S)-2-(1-adamantyl)-2-[[4-[(3,4-dichlorophenyl)methoxy]benzofuran-5-carbonyl]amino]acetic acid]
23 | 446 nM | 100% | O=C(N[C@H](C(=O)O)C12CC3CC(CC(C3)C1)C2)c1ccc2ccccc2c1OCc1ccc(S(=O)(=O)C(F)(F)F)cc1 [compound 61]
24 | 406 nM | 156% | O=C(N[C@H](C(=O)O)C12CC3CC(CC(C3)C1)C2)c1cc(F)c2ccccc2c1OCc1ccc(C(F)(F)F)cc1 [compound 3]
25 | 477 nM | 42.2% | O=C(O)[C@@H](N1CN(Cc2ccc(SC(F)(F)F)cc2)c2c(ccc3ccccc23)C1=O)C12CC3CC(CC(C3)C1)C2 [compound 126, (2S)-2-(1-adamantyl)-2-[4-oxo-1-[[4-(trifluoromethylsulfanyl)phenyl]methyl]-2H-benzo[h]quinazolin-3-yl]acetic acid]
26 | 296 nM | 92.5% | O=C(N[C@H](C(=O)O)C12CC3CC(CC(C3)C1)C2)c1ccc2cc(F)ccc2c1OCc1ccc(SC(F)(F)F)cc1 [compound 57]
27 | 153 nM | 215% | CCOC12CC3CC(C1)CC([C@H](NC(=O)c1ccc4ccccc4c1OCc1ccc(C(F)(F)F)cc1)C(=O)O)(C3)C2 [compound 27]
28 | 109 nM | 66% | O=C(O)[C@@H](N1CN(Cc2ccc(C(F)(F)F)cc2)c2c(ccc3ccccc23)C1=O)C12CC3CC(CC(C3)C1)C2 [compound 125, (2S)-2-(1-adamantyl)-2-[4-oxo-1-[[4-(trifluoromethyl)phenyl]methyl]-2H-benzo[h]quinazolin-3-yl]acetic acid]
29 | 183 nM | 113% | O=C(N[C@H](C(=O)O)C12CC3CC(CC(OCC(F)(F)F)(C3)C1)C2)c1ccc2cc(F)ccc2c1OCc1ccc(C(F)(F)F)cc1 [compound 26]
30 | 471 nM | 116% | O=C(N[C@H](C(=O)O)C12CC3CC(CC(C3)C1)C2)c1ccc2occc2c1OCc1ccc(OC(F)(F)F)cc1 [compound 124, (2S)-2-(1-adamantyl)-2-[[4-[[4-(trifluoromethoxy)phenyl]methoxy]benzofuran-5-carbonyl]amino]acetic acid]
31 | 375 nM | 131% | COC12CC3CC(C1)CC([C@H](NC(=O)c1ccc4ccccc4c1OCc1ccc(C(F)(F)F)cc1)C(=O)O)(C3)C2 [compound 85]
32 | 201 nM | 304% | CC12CC3(C)CC(C)(C1)CC(C(NC(=O)c1ccc4ccccc4c1OCc1ccc(OC(F)(F)F)cc1)C(=O)O)(C2)C3 (stereo not shown) [compound 82]
33 | 278 nM | 51.9% | O=C(N[C@H](C(=O)O)C12CC3CC(CC(C3)C1)C2)c1ccc2ccccc2c1NCc1ccc(SC(F)(F)F)cc1 [compound 123, (2S)-2-(1-adamantyl)-2-[[1-[[4-(trifluoromethylsulfanyl)phenyl]methylamino]naphthalene-2-carbonyl]amino]acetic acid]
34 | 291 nM | 257% | CC12CC3(C)CC(C)(C1)CC([C@H](NC(=O)c1ccc4ccccc4c1OCc1ccc(C(F)(F)F)cc1)C(=O)O)(C2)C3 [compound 59]

From patent US12637414B2, “Arylamides and methods of use thereof” (Genzyme Corporation, priority 2019, dated 2026)
